Measured values reported in ChEMBL document CHEMBL4184299, “Regioselective and efficient enzymatic synthesis of antimicrobial andrographolide derivatives” (Bioorg Med Chem Lett, 2018).
In brackets after ≈: the same amount, converted by molar mass. Activity calls are given as the source filed them. The rule behind the calls is not given here.

How the values were obtained:
Pseudomonas fluorescens = assay: Antimicrobial activity against Pseudomonas fluorescens; assay type: functional
Staphylococcus aureus = assay: Antimicrobial activity against Staphylococcus aureus; assay type: functional
Candida albicans = assay: Antimicrobial activity against Candida albicans; assay type: functional
[1] = Hemolytic activity in human RBC at 25 ug/ml relative to control; assay type: ADME, cell-based, Erythrocyte; conditions: red blood cells (erythrocytes), read-out: Activity
Micrococcus luteus = assay: Antimicrobial activity against Micrococcus luteus; assay type: functional
Rhizopus arrhizus = assay: Antimicrobial activity against Rhizopus oryzae; assay type: functional
Escherichia coli [2] = assay: Antimicrobial activity against Escherichia coli; assay type: functional
Aspergillus fumigatus = assay: Antimicrobial activity against Aspergillus fumigatus; assay type: functional
Escherichia coli [3] = assay: Disruption of membrane integrity in Escherichia coli assessed as protein leakage at MIC; assay type: functional, organism-based
Escherichia coli [4] = assay: Induction of membrane permeability in Escherichia coli at MIC by DAPI/FITC/propidium iodide staining-based fluorescent microscopic analysis; assay type: functional, organism-based
Escherichia coli [5] = assay: Induction of membrane disruption in Escherichia coli assessed as translucent membranes at MIC after 60 mins by SEM analysis; assay type: functional, organism-based
Escherichia coli [6] = assay: Induction of membrane disruption in Escherichia coli assessed as deflated membranes at MIC after 60 mins by SEM analysis; assay type: functional, organism-based
Escherichia coli [7] = assay: Induction of membrane disruption in Escherichia coli assessed as blurred membranes at MIC after 60 mins by SEM analysis; assay type: functional, organism-based

| Structure (SMILES) | MIC (Pseudomonas fluorescens) [µg/mL] | MIC (Staphylococcus aureus) [µg/mL] | MIC (Candida albicans) [µg/mL] | hemolysis at 25 ug/ml [1] [%] | MIC (Micrococcus luteus) [µg/mL] | MIC (Rhizopus arrhizus) [µg/mL] | MIC (Escherichia coli [2]) [µg/mL] | MIC (Aspergillus fumigatus) [µg/mL] | Activity (Escherichia coli [3]) | Activity (Escherichia coli [4]) | Activity (Escherichia coli [5]) | Activity (Escherichia coli [6]) | Activity (Escherichia coli [7]) |
| --- | --- | --- | --- | --- | --- | --- | --- | --- | --- | --- | --- | --- | --- |
| CN[C@@H]1[C@@H](O)[C@@H](O[C@@H]2[C@@H](O)[C@H](O[C@H]3O[C@H](CN)CC[C@H]3N)[C@@H](N)C[C@H]2N)OC[C@]1(C)O.O=S(=O)(O)O | 0.5 | 0.5 | – | – | – | – | – | – | – | – | – | – | – |
| C=C1CC[C@@H]2[C@](C)(CO)[C@H](O)CC[C@@]2(C)[C@@H]1C/C=C1/C(=O)OC[C@H]1OC(C)=O | 4 (≈ 10.2 µM) | 16 (≈ 40.8 µM) | 32 (≈ 81.5 µM) | 4.8 | 32 (≈ 81.5 µM) | > 128 | 64 (≈ 163 µM) | > 128 | Active | – | – | – | – |
| C=C1CC[C@@H]2[C@](C)(CO)[C@H](O)CC[C@@]2(C)[C@@H]1C/C=C1/C(=O)OC[C@H]1OC(=O)CC | 32 (≈ 78.7 µM) | 4 (≈ 9.84 µM) | 16 (≈ 39.4 µM) | 6.4 | 16 (≈ 39.4 µM) | > 128 | 8 (≈ 19.7 µM) | > 128 | – | Active | Active | Active | Active |
| C=C1CC[C@@H]2[C@](C)(CO)[C@H](O)CC[C@@]2(C)[C@@H]1C/C=C1/C(=O)OC[C@H]1O [ANDROGRAPHOLIDE] | > 128 | > 128 | > 128 | 8.5 | > 128 | > 128 | > 128 | > 128 | – | – | – | – | – |
| C=C1CC[C@@H]2[C@](C)(CO)[C@H](O)CC[C@@]2(C)[C@@H]1C/C=C1/C(=O)OC[C@H]1OC(=O)CCCCCCCCCCC | > 128 | 16 (≈ 30 µM) | 32 (≈ 60.1 µM) | 46 | 16 (≈ 30 µM) | > 128 | 64 (≈ 120 µM) | > 128 | Active | – | – | – | – |
| C=C1CC[C@@H]2[C@](C)(CO)[C@H](O)CC[C@@]2(C)[C@@H]1C/C=C1/C(=O)OC[C@H]1OC(=O)CCC | 16 (≈ 38 µM) | 8 (≈ 19 µM) | 64 (≈ 152 µM) | 7.1 | 32 (≈ 76.1 µM) | > 128 | 4 (≈ 9.51 µM) | > 128 | Active | Active | Active | Active | Active |
| C[C@@H]1[C@H](O)[C@@H](C)/C=C/C=C/C=C/C=C/C=C/C=C/C=C/[C@H](O[C@@H]2O[C@H](C)[C@@H](O)[C@H](N)[C@@H]2O)C[C@@H]2O[C@](O)(C[C@@H](O)C[C@@H](O)[C@H](O)CC[C@@H](O)C[C@@H](O)CC(=O)O[C@H]1C)C[C@H](O)[C@H]2C(=O)O [AMPHOTERICIN B] | – | – | – | – | – | 1 (≈ 1.08 µM) | – | 0.5 (≈ 0.541 µM) | – | – | – | – | – |
| C=C1CC[C@@H]2[C@](C)(CO)[C@H](O)CC[C@@]2(C)[C@@H]1C/C=C1/C(=O)OC[C@H]1OC(=O)CCCCCCCCC | 64 (≈ 127 µM) | 16 (≈ 31.7 µM) | > 128 | 35 | 64 (≈ 127 µM) | > 128 | 32 (≈ 63.4 µM) | > 128 | Active | – | – | – | – |
